Tested on: germination and nascent sprouts of potatoes
Assay: Post-storage application to washed potatoes, in line or by immersion, compared with CIPC and other essential oils
Assay type: in vivo, potato
Settings: emulsifiable liquid solution applied in line to washed potatoes or by immersion in dilute aqueous solution, after storage, at ambient temperature

C=CCc1ccc(O)c(OC)c1 [eugenol]
prevention of germination and burning of nascent sprouts: more effectively than the CIPC-based formulation or other essential oils

From US20070027033A1, “Anti-germination method of tubers or bulbs using eugenol and/or isoeugenol” (priority 2005, published 2007)
